This is an account of results in patent EP2490021A1, “Modulators of PRR and GPCR signalling” (Biotempt B.V., priority 2011, dated 2012).

What all share (assay type): cell-based, human
Test [1] deals with TLR-4. The test is described as follows: PKB phosphorylation in hPBMC challenged with LPS (Example 4). The note with it: 2 µg/ml LPS. As for the experimental part: (§1) Subsequently PMBC were incubated with 1.3, 3.2, 8, 20 and 50 ng/ml peptide AQGV , LQGV, AQG, LQG, QGV, AQ, LQ, GV or QG (peptide, which was freshly prepared as a 20 mg/ml stock solution in bidistilled water) or treated with the cell culture medium alone for 10 min.
(§2) hPMBC were challenged with 2 µg/ml TLR-4 ligand LPS for 1 min, 5 min, 10 min and 20 min.

Test [2] has as its system TLR-4. The test is described as follows: p38 MAPK phosphorylation in hPBMC challenged with LPS (Example 4). Conditions: 2 µg/ml LPS; for p38 MAPK phosphorylation: low concentrations of peptide, compared to control (LPS stimulated, no peptide added); for TLR-4 mediated signalling induced by LPS, p38 MAPK phosphorylation status: peptide at 20 ng/ml. As for the experimental part:
as §1, §2

Test [3] relates to neutrophils. The test is described as follows: LPS-driven cytokine production by neutrophils. Conditions: 1 µg/mL LPS 24 hours, both concentrations (20 or 50 ng/mL), p=0.01 versus LPS. On the procedure:
(§3) Blood was drawn from 2 healthy volunteers into tubes containing citrate as an anticoagulant. Neutrophils were isolated by using a Polymorphprep kit (Nicomed, Oslo, Norway) according to the manufacturer's instructions. The purity of the cells, as assessed by flow cytometry (anti-CD45, 14, DR, and CD66b), was > 93%.
5x10^5 cells were incubated in the presence of 1 µg/mL LPS (E.coli O111:B4, Sigma-Aldrich) or pre-stimulated with 20 or 50 ng/mL of EA-230 (peptide AQGV) and then incubated in the presence of 1 µg/mL LPS for 24 hours (37°C, 5% CO2). At the end of the incubation period, supernatants were harvested and concentrations of TNF-α, IL-6, and IL-8 were measured by flow cytometry using Bender Flowcytomics kit (Bender Med systems, Burlingame, USA) according to the recommendations of the manufacturer. Concentrations of IL-10 were determined by ELISA (RnD Systems). Measurements were done in duplicate.

The test system of test [4] is TLR-4. The test is described as follows: Kinase phosphorylation in PBMC-derived monocytes challenged with TLR-4 ligand LPS. Conditions: 2 µg/ml LPS, at 20 ng/ml and at 50 ng/ml. On the procedure: (§4) PMBC-derived monocytes were isolated from healthy volunteers (hPBMCs) according to routine procedures^1. […]
(§5) Following stimulation, the phosphorylation status of p38MAPK, JNK, PKB, and P42/p44MAPK/ERK1,2 was analysed^3. Results were corrected for differences using co-measurement of β-actin^4.

For another test, the system named is monocytes. Nature of the test: Phosphoprotein array, LPS-stimulated monocytes. The note with it: 1 µg/mL LPS, pre-incubation with 20 ng/mL. On the procedure: (§6) Blood was drawn from healthy volunteers into tubes containing citrate as an anticoagulant. Neutrophils were isolated by using a Polymorphprep kit (Nicomed, Oslo, Norway) according to the manufacturer's instructions; monocytes were purified with magnetic beads (Miltenyi Biotech). The purity of the cells, as assessed by flow cytometry (anti-CD45, 14, DR, and CD66b), was > 93%. For each cell type, samples from two different donors were examined.
(§7) 5x10^6 cells were incubated in the presence of 1 µg/mL LPS (E.coli O111:B4, Sigma-Aldrich) or pre-stimulated with 20 ng/mL of EA-230 (peptide AQGV) and then incubated in the presence of 1 µg/mL LPS for 0, 5, 15 and 30 minutes (37°C, 5% CO2). At the end of the incubation period, the cells were put on ice, and proteins were extracted using Phosphosafe reagent (Novagen), according to the recommendations of the manufacturer. The total protein concentration was measured using a conventional Lowry assay (Pierce).
(§8) To determine the relative levels of protein phosphorylation, a human PhosphoKinase array (RnD Systems) was used according to the recommendations of the manufacturer. 200 µg of protein were used per array. Spot pixel density was determined for each protein and ratios to the controls (no LPS and no EA stimulation) were measured.

A further test has as its system FPR. The test is described as follows: Kinase phosphorylation in PBMC-derived monocytes challenged with fMLP. The note with it: 1 µM fmlp, at both 20 ng/ml and 50 ng/ml. On the procedure:
PMBC-derived monocytes were isolated from healthy volunteers (hPBMCs) according to routine procedures^1. Subsequently PMBC were incubated with 20 ng/ml peptide AQGV (Biotempt peptide, which was freshly prepared as a 20 mg/ml stock solution in bidistilled water) or treated with the cell culture medium alone for 10 min. hPMBC were challenged with: • 1) 2 µg/ml TLR-4 ligand LPS ^2 for 1 min, 5 min, 10 min and 20 min, • 2) 2 µg/ml NOD ligand peptidoglycan (PGN) for 1 min, 5 min, 10 min and 20 min, or • 3) 1 µM fmlp (formyl-Met-Leu-Phe) for 1 min, 5 min, 10 min and 20 min.
as §5

The subject of test [5] is neutrophils. Nature of the test: Phosphoprotein array, LPS-stimulated neutrophils. The note with it: 1 µg/mL LPS, pre-stimulated with 20 ng/mL. As for the experimental part:
as §6, §7, §8

In a further test the test system is NF-kB. Nature of the test: NF-kB p50 and p65 subunit activity ELISA, LPS-stimulated neutrophils. The note with it: 1 µg/mL LPS 15 minutes, both concentrations, p=0.03 vs LPS alone. On the procedure: as §3
[…] At the end of the incubation period, the cells were put on ice, and nuclear proteins were extracted using Nuclear Extraction Kit (Cayman chemicals, Ann Harbor, USA), according to the recommendations of the manufacturer. The total protein concentration was measured using a conventional Lowry assay (Pierce).
P50 and p65 NF-kB subunit activity was determined by ELISA (Cayman chemicals). This assay allows the determination of the true NF-kB activity by measuring the binding of its subunits to specific consensus sequences. This assay is similar to the traditional EMSA, though more sensitive. 10 µg of proteins were used per assay. Analysis was performed in duplicate.

Another test concerns NOD. Nature of the test: Kinase phosphorylation in PBMC-derived monocytes challenged with NOD ligand peptidoglycan. The note with it: 2 µg/ml PGN, at 50 ng/ml. On the procedure: as §4, §5
The mark [6] stands for this setting: low concentrations, i.e. below 20 ng/ml, compared to control (LPS stimulated, no peptide added).

Entries after “also recorded” stand apart in the source; their conditions may differ. Where a SMILES comes first, the peptide text is derived from it.

`CC(C)[C@H](NC(=O)CNC(=O)[C@H](CCC(N)=O)NC(=O)[C@H](C)N)C(=O)O` [AQGV] (H-AQGV-OH): the “TLR-4 mediated signalling induced by LPS, PKB phosphorylation status” value in the test with TLR-4 [1] (setting [6]) was “already display a modulation”. Besides, the “TLR-4 mediated signalling induced by LPS, PKB phosphorylation status” value in the test on TLR-4 [1] (peptide at 20 ng/ml) is given as “reduced”. In addition, in the test on TLR-4 [2], the “p38 MAPK phosphorylation” value is “already modulated” and the “TLR-4 mediated signalling induced by LPS, p38 MAPK phosphorylation status” value is “initial downregulation”. Besides, in the test on neutrophils [3], the “LPS induced production of IL-6” value is listed as “reduced the cytokine production almost to control values”, the “LPS induced production of IL-8” value is “reduced the cytokine production almost to control values”, the “LPS induced production of IL-10” value was “reduced the cytokine production almost to control values” and the “LPS induced production of TNF-α” value is “reduced the cytokine production almost to control values”. In the test with TLR-4 [4], the “TLR-4 mediated signalling induced by LPS, JNK phosphorylation status” value is “reduced”; the “TLR-4 mediated signalling induced by LPS, P42/p44MAPK/ERK1,2 phosphorylation status” value was “reduced”; the “TLR-4 mediated signalling induced by LPS, PKB phosphorylation status” value is “reduced”; the “TLR-4 mediated signalling induced by LPS, p38MAPK phosphorylation status” value was “reduced”. In addition, in the test on monocytes, the eNOS phosphorylation entry is given as “strongly stimulated”. Besides, in the test on monocytes (at 15 minutes), the “LPS-driven phosphorylation of AMPK” value is “prevented this effect”, the “LPS-driven phosphorylation of ERK1/2” value is on record as “prevented this effect”, the “LPS-driven phosphorylation of JNK” value is on record as “prevented this effect” and the “LPS-driven phosphorylation of MSK” value is listed as “prevented this effect”. Also, in the test with monocytes (at 15 minutes), the “LPS-driven phosphorylation of P38 MAPK” value is “prevented this effect” and the “LPS-driven phosphorylation of PKB/AKT” value was “prevented this effect”. In the test with FPR, the “FPR signalling induced by fMLP” value was “slightly attenuated”; the “FPR signalling induced by fMLP, PKB phosphorylation” value was “induction of PKB phosphorylation was initially seen, followed by downregulation”; the “FPR signalling induced by fMLP, p38MAPK phosphorylation” value is “downregulation”. In the test on neutrophils [5], the eNOS phosphorylation result was “increase”. In the test on neutrophils [5] (at 15 minutes), the “LPS-driven phosphorylation of CREB” value is listed as “blunted”, the “LPS-driven phosphorylation of ERK1/2” value is reported as “blunted”, the “LPS-driven phosphorylation of GSK 3a/b” value is “blunted” and the “LPS-driven phosphorylation of MEK1/2” value is reported as “blunted”. In addition, in the test with neutrophils [5] (at 15 minutes), the “LPS-driven phosphorylation of P38 MAPK” value is listed as “blunted”. In the test on NF-kB, the “LPS induced NF-kB p50 activity” value is “reduced this LPS induced activation” and the “LPS induced NF-kB p65 activity” value is on record as “reduced this LPS induced activation”. In addition, in the test with NOD, the “NOD-signalling induced by peptidoglycan, JNK phosphorylation status” value is given as “seemingly stimulates”; the “NOD-signalling induced by peptidoglycan, P42/p44MAPK/ERK1,2 phosphorylation status” value is listed as “seemingly stimulates”; the “NOD-signalling induced by peptidoglycan, PKB phosphorylation status” value is listed as “seemingly stimulates”; the “NOD-signalling induced by peptidoglycan, p38MAPK phosphorylation status” value is “seemingly stimulates”.
For `C[C@H](N)C(=O)N[C@@H](CCC(N)=O)C(=O)O` [AQ] (H-Ala-Gln-OH), the “TLR-4 mediated signalling induced by LPS, PKB phosphorylation status” value with TLR-4 [1] (setting [6]) is recorded as “already display a modulation”. Further, the “TLR-4 mediated signalling induced by LPS, PKB phosphorylation status” value in the test with TLR-4 [1] (peptide at 20 ng/ml) is reported as “inhibited”. For the same compound, in the test with TLR-4 [2], the “p38 MAPK phosphorylation” value is listed as “already modulated” and the “TLR-4 mediated signalling induced by LPS, p38 MAPK phosphorylation status” value is “slight overall downregulation”.
Turning to `CC(C)C[C@H](N)C(=O)N[C@@H](CCC(N)=O)C(=O)NCC(=O)N[C@H](C(=O)O)C(C)C` [LQGV] (H-LQGV-OH), the “TLR-4 mediated signalling induced by LPS, PKB phosphorylation status” value in the test with TLR-4 [1] (peptide at 20 ng/ml) is “reduced; also recorded: significantly downregulated”. In the test with TLR-4 [2], the “p38 MAPK phosphorylation” value is reported as “already modulated” and the “TLR-4 mediated signalling induced by LPS, p38 MAPK phosphorylation status” value is given as “initial downregulation”.
For the compound `CC(C)C[C@H](N)C(=O)N[C@@H](CCC(N)=O)C(=O)NCC(=O)O` [LQG] (H-Leu-Gln-Gly-OH), in the test on TLR-4 [2], the “p38 MAPK phosphorylation” value is reported as “already modulated” and the “TLR-4 mediated signalling induced by LPS, p38 MAPK phosphorylation status” value is on record as “initial downregulation”.
`CC(C)C[C@H](N)C(=O)N[C@@H](CCC(N)=O)C(=O)O` [LQ] (H-Leu-Gln-OH): the figures for the “TLR-4 mediated signalling induced by LPS, PKB phosphorylation status” value with TLR-4 [1] (setting [6]) and in the test on TLR-4 [1] (peptide at 20 ng/ml) were “already display a modulation” and “inhibited”, respectively.
For the compound `CC(C)[C@H](NC(=O)CNC(=O)[C@@H](N)CCC(N)=O)C(=O)O` [QGV] (H-Gln-Gly-Val-OH), the “TLR-4 mediated signalling induced by LPS, PKB phosphorylation status” value is “already display a modulation” in the test with TLR-4 [1] (setting [6]) and “at least initial, inhibition” with TLR-4 [1] (peptide at 20 ng/ml). Further, the “p38 MAPK phosphorylation” value with TLR-4 [2] was “already modulated”.
Consider `NC(=O)CC[C@H](N)C(=O)NCC(=O)O` [QG] (H-Gln-Gly-OH), for which, in the test on TLR-4 [2], the “p38 MAPK phosphorylation” value is on record as “already modulated” and the “TLR-4 mediated signalling induced by LPS, p38 MAPK phosphorylation status” value was “slight upregulation”.
